Data on nine molecules can be found in patent publication US20170198027A1 (priority 2012, published 2017).

The subject of data set [1] is ApoE ko mice fed with high fat diet. The text has this:
10 ApoE ko mice were fed with regular chow diet and used as negative control group. 50 ApoE ko mice were fed with high fat diet (35% kcal fat, 1% cholesterol) for 8 weeks, and then the plasma samples were collected for lipid profile measurement before the treatment. 50 ApoE ko mice were assigned into 5 groups based on the fasting overnight plasma TC and HDL level.
19 Mar. 2012 to 6 Apr. 2012: Group the mice based on the TC and HDL level and start the treatment with 3 doses of antibody APOA1 by i.p daily on the weekday (The first dose was administered by iv injection
13 Apr. 2012-14 May 2012: The treatment with antibody APOA1 was changed to i.p injection every two days (Monday, Wednesday, and Friday) per client's instruction.
Antibody products were administrated by intraperitoneal injection every two days (Monday, Wednesday, and Friday). and the positive compound was administered by p.o every day.
5.4. Body weight and blood glucose measurement: The body weight was weighed weekly during the period of treatment. The fasting overnight blood glucose was measured at the end of study by Roche glucometer.
5.5 24 h food intake measurement: 24 hours food intake for each cage was measured weekly
5.6. Plasma lipid profile measurement: About 300 ul of blood sample was collected from the orbital vein for each mouse and centrifuged at 7000 rpm for 5 min at 4° C. and the plasma lipid profile was measured by Roche Modular automatic biochemistry analyzer in DaAn Medical Laboratory
After RAAS antibody products treatment for 8 weeks, all mice were sacrificed. Measured body weight and collected blood sample for each mouse. Weighed liver weight and saved a tiny piece of liver into 4% paraformaldehyde (PFA) fixation solution for further analysis. At same time, take the photos with heart, lung, aortas and two kidneys.
Scanning the glasses slides with the Aperio ScanScope system and analyze with the image proplus software to measure the area of atherosclerotic plaque session. The results were expressed as the percentage of the total aortic surface area covered by lesions. The operation procedure of software was briefly described as follow: Converted the sys version photos into JPG version, then calibrated it and subsequently selected the red regions and then calculate the total area automatically by image proplus software.
(§1) The results were expressed as the Mean±SEM and statistically evaluated by student's t-test.

The next data set deals with HBV. As to the kind of experiment: HBV mouse hydrodynamic injection model. In kind it is in vivo, BALB/c mice. Here is the method: 3.1.1. From day −7 to day 0, all 5 mice in group 4 were administrated i.p./i.v. with test article daily for 8
3″ 1.2″ On day 0, all groups of mice were hydrodynamicly injected via tail vein with pcDNA3.1/HBV plasmid DNA in a volume of normal saline equal to 8% of a mouse body weight. The plasmid DNA solution for injections was prepared one day before injection and then stored in 4GC until injection”
[…] […] For group 4, the last dosing was carried out 4 hours post HOI.
3.1.4. All mice were submandibularly blec! for plasma preparation according to the design in Table 1.
3.1.5. All mice were sacrificed and c!issectec! to obtain livers (two pieces of left lobe, one piece of middle lobe and one piece of right lobe) according to the regimen in table 1. Isolated livers were snap frozen in liquid nitrogen immec!iately upon collected.
3.2.1.1 Isolate DNA from 50 pi plasma using QIAamp 96 DNA Blood Kit. DNA was eluted with
3.2.12 Run qPCR for HBV DNA quantification.
To eliminate the influence of input HBV plasmid, primers and probe targeting HBV sequence which detect newly replicated HBV DNA and input HBV plasmid DNA and targeting pcDNA3.1 plasmid backbone sequence which only detect the input plasmid DNA were used to do real-time PCR, respectively”
HBV DNA quantity=DNA determined by HBV primer-DNA determined by plasmid primer.
Dilute the plasma 500 fold;
Detect HBsAg level in 50 pl diluted plasma by using HBsAg ELISA kit.
a) Homogenize the liver tissue with Qiagen Tissue Lyser in 10 mM Tris.HCI, 10 mM EDTA, pH7.5.
The total liver DNA was diluted to 10 ng/pl. Use 10 iJI diluted sample to run real-time PCR. HBV DNA quantity=DNA determined by HBV primer-DNA determined by plasmid primer.
a) Load 50 pg DNA for each sample. Run •1.2% agarose gel in 1×TAE.

For data set [2], the system named is 4T1-luc breast cancer cells. The note with it: vs vehicle group. On the procedure: The cell suspension was carried to the animal room in an ice box. […] Totally 80 mice were selected and divided into 10 groups. All mice were monitored daily.
Tumor growth status was monitored by both IVIS Lumina II and a digital caliper twice weekly since the day after cell implantation.
For IVIS Lumina II measurement, bioluminescence intensity of primary tumor and metastatic tumor was obtained according to the following procedure:
1. Tumor-bearing mice were \Neighted and intra peritoneally administered luciferin at a dose of 150 mg/kg (10 ml/kg);
2. After 10 min, mice were pre-anesthetized with the mixture of oxygen and isoflurane. […]
3. ROI data was calculated with IVIS Lumina II software and relative ROI was calculated to express the tumor growth status. […]
Tumor size was measured twice a week in two dimensions using a caliper. and the tumor volume (V) was expressed in mm3 using the formula: V=0.5 a×b2 where a and bare the long and short diameters […]
2. […] Body weights were measured and recorded twice weekly.
TGI (tumor growth inhibition, in percent) was calculated according to the following equation: […]
T/C (%) was calculated based on the tumor volume data collected on Day 27.
The difference between the mean values of tumor volume in treatment and vehicle groups was analyzed for significance using one way ANOVA test at each time point after log transformation.

Data set [3] relates to Influenza H1N1 A/WSN/33. The class given is in vivo, BALB/c mice.
Data set [4] has as its system Influenza H1N1 A/WSN/33. In kind it is in vivo, BALB/c mice. The source holds these as a separate data set.
The test system of data set [5] is Influenza H1N1 A/WSN/33. In kind it is in vivo, BALB/c mice. Conditions: oseltamivir 30 mg/kg/day po/bid.
For the next data set, the system named is db/db mice. Here is the method:
Fasting 6 hours and overnight blood glucose were measured. 60 db/db mice were assigned into 5 grouped based on the fasting 6 h blood glucose and body weight. […] 8 db/rn lean mice was used as negative control group […]
5.2. Study duration: This study was conducted in two periods: Period 1: Oct. 13, 2011-Feb. […] 13-Mar. 16, 2012: Test 3 antibody products
Feb. 13, 2012: Start the treatment with 3 antibodies by i.p every two days (Monday, Wednesday, Friday) after 8 weeks washout from previous treatment.
Antibody products were administrated by intraperitoneal injection and the positive compound was mixed into food at the dose 30 rng/kg/day.
5.4. Body weight and blood glucose measurement: Fasting 6 hours body weight and blood glucose concentration were measured by Roche giucometer weekly.
5.5. Plasma insulin measurement: About 30 ul of blood sample was collected from the orbital vein for each mouse and centrifuged 7000 rpm at 4° C. for 5 min. Plasma samples were saved in −70 l-::. The plasma insulin level was measured with EUSA kit (CRYSTAL, cat#90080), 5.6. Plasma lipid profile measurement: The plasma lipid profile were measured by the DaAn Clinic central lab.
5.7. Study taken down: After 14 dose antibody products treatment, all mice were sacrificed. Measure body weight and collect blood sample for each mouse. Measure liver weight and save one piece for pathology study and freeze one piece in liquid nitrogen for further analysis in the future. Save pancreas into 4% paraformaldehyde (PFA) fixation solution for future analysis.
as §1

Another data set relates to HCV. As to the kind of experiment: HCV replicon dose-dependent curves (figure legends, genotype not stated). Conditions: FIG. 44/45 legends. In kind it is cell-based. From the text:
FIGS. 44-1 through 44-18.
FIGS. 451 through 45-18-.
FIGS. 44-1 through 44-18. Dose-dependent curves (CC 50 values)
FIG. 45-1 through 45-18 Dose-dependent curves (EC50 values)
On the technique in general: In antiviral work, replicon cells carry a viral genome segment that copies itself.

Data set [6] relates to New Zealand white rabbit fed with high fat diet. The note with it: rabbit, in vivo.
Procedure: The treatment groups were given APOAJ via auricular vein once a week Vehicle controls received normal saline via auricular vein once a week. […] The body weight of animal was determined every week and whole blood was drawn every three weeks. The study duration was 19 weeks. At the end of study, all animals were sacrificed. […] Male New Zealand white rabbits were used in this study. […] Blood samples were taken 12 hour after fasting before study to determine the blood lipid parameters. […] Ten to 14 rabbits were in one group. […] First dose was given 1 week before high fat diet. […] 5.2 blood lipid parameters: whole blood was drawn every three weeks. Animals were subject to 12 hour fast before taking blood. […] The upper layer of serum was then separated and examined for total cholesterol (TC), total triglyceride (TG), low density lipoprotein cholesterin (LDL-C), and high density lipoprotein cholesterin (HDL-C). Test reagents were purchased from Shanghai A: The atherosclerosis of aorta (plaque area lj) B: Liver index C: Aorta, liver, heart, arteria carotis, kidney All animals were anesthetized by 20 of ethyl carbamate and then sacrificed with air injection. Abdomen cavity was opened. Whole blood was taken from heart. Heart was harvested along with 7 em of aorta. Then other organs like liver, kidney and arteria carotis were harvested. […] Pictures were taken then. Aorta was cut from aortic arch, opened longitudinally and taken picture. […] One piece of this sample was fixed in fomlalin for further pathological analysis. The weight of liver was determined immediately. Two pieces of specimen were cut from hepatic lobe. One was kept in cryo-preservation tube for lipid analysis and another one was fixed in formalin for further pathological analysis. Animals were fast for 12 hours before taking blood samples via auricular vein. […] Test reagents were purchased from Shanghai Rong Sheng Bio-pharmaceutical Co. Ltd. The aorta was dissected and opened for 7.5 em from aortic arch longitudinally. Pictures were taken and atherosclerosis changing was analyzed.

Values joined by “and” are separate entries in the source; they are usually repeats but may differ in a detail not shown here. Identical values can stand only once. Like-named read-outs stand apart in the source and are kept apart here. Some results are limits rather than exact numbers.

For APOA 1, the “Wounded (number of mice)” value in data set [1] (APOA 1 high dose group) and in data set [1] (APOA 1 mid dose group) was 1 in each case. Further, the “Dead (number of mice)” value in data set [1] (APOA 1 high dose group, reason: Kidney infection & i.v injection) stood at 2; in [1] (APOA 1 mid dose group, reason: Blood collection) it was 1.
For `C=C1[C@H](CO)[C@@H](O)C[C@@H]1n1cnc2c(=O)[nH]c(N)nc21` [ETV, Entecavir], the “HBV intermediate DNA in livers (real-time PCR)” value in the data set with HBV (ETV day 5, RASS 8 prophylactic treatment day 7) is reported as “significantly decreased the HBV intermediate DNA in liver”. In addition, the “ssDNA, HBV replication intermediate DNA in livers (southern blot)” value in the data set with HBV (RASS 8 prophylactic treatment or ETV treatment) was “decreased dramatically”. The “inhibition to the HBV replication (plasma)” value with HBV (therapeutically treated, from day 3 post HDI to end) is “significant inhibition”. Moreover, the “HBsAg level in plasma (ELISA)” value in the data set on HBV (within 5 days post HBV HDI, RASS 8 therapeutic and prophylactic) is given as “didn't have significant inhibition”.
On to `Nc1ccn([C@@H]2O[C@H](CO)[C@@H](O)C2(F)F)c(=O)n1` [gemcitabine, reference compound], for which the “one-way ANOVA analysis on tumor volume changes” value in data set [2] (Day 20) is listed as “*′**”. The tumor volume entry in [2] (gemcitabine since day 13) is reported as “significant tumor volume reduction”.
Turning to `CCOC(=O)C1=C[C@@H](OC(CC)CC)[C@H](NC(C)=O)[C@@H](N)C1` [Oseltamivir, Oseltamivir phosphate (prodrug)], the “body weights dropped by” value in the data set on Influenza H1N1 A/WSN/33 [3] (mouse, in vivo) is listed as under 15%. For the same molecule, the survival entry is “survived and 4 out of 5” in the data set on Influenza H1N1 A/WSN/33 [3] (oseltamivir 1 mg/kg orally twice daily for 8 days); “survived completely” with Influenza H1N1 A/WSN/33 [4] (oseltamivir po/bid); “survived completely” in the data set with Influenza H1N1 A/WSN/33 [5]. In the data set on Influenza H1N1 A/WSN/33 [4] (H1N1 + Oseltamivir 1 mg/kg, P<0.01 vs vehicle), the “Mean day to death ± S.D.” value was over 10 ± 0.0 days.
For `CC(C)c1c(C(=O)Nc2ccccc2)c(-c2ccccc2)c(-c2ccc(F)cc2)n1CC[C@@H](O)C[C@@H](O)CC(=O)O` [Atorvastatin, reference compound], the “arteriosclerosis plaque lesion in the region of thoracic aorta (root plaque area)” value in data set [1] (APOA1 mid dose and low dose, not significant vs vehicle) is recorded as “trend of reducing the arteriosclerosis plaque lesion”. Also, in data set [1] (after 8 weeks treatment vs vehicle), the “fasting overnight blood glucose” value is given as “no effect”. Further, in data set [1] (after 8 weeks treatment, APOA1 low dose), the “atherosclerosis plaque lesion area of aorta” value is recorded as “significant reduced the plaque lesion area”. In addition, in [1] (atorvastatin 20 mg/kg, after 8 weeks treatment), the Liver weight entry was “reduced liver weight and the ratio of liver/body weight significantly”. Moreover, in [1] (atorvastatin p=0.08), the “atherosclerosis plaque lesion from the aortic root to right renal artery” value is given as “trend of reducing the atherosclerosis plaque lesion”. Further, in data set [1] (vs vehicle group, atorvastatin after 5 weeks treatment), the body weight result is on record as “significantly reduced the body weight”.
With `CCOC(=O)C1=C[C@@H](OC(CC)CC)[C@H](NC(C)=O)[C@@H](N)C1` [Oseltarnivir], in the data set with Influenza H1N1 A/WSN/33 [3] (H1N1 + Oseltamivir po BID, dose cell prints 0.2/0.4 ml/mouse), the Survivor/total is listed as 4/4. Also, the “Mean day to death ± S.D.” value in the data set on Influenza H1N1 A/WSN/33 [3] (H1N1 + Oseltamivir po BID, dose cell prints 0.2/0.4 ml/mouse, P<0.001 vs vehicle) is over 14 ± 0.0 days.
`CCc1ccc(CCOc2ccc(CC3SC(=O)NC3=O)cc2)nc1` (stereo not drawn) [Pioglitazone]: the “dead mice: kidney infection” value in the data set with db/db mice (Part 1, Positive group (30 mg/kg/day in food)) is given as 1. Further, the “dead mice: kidney bleeding” value with db/db mice (db/db, mouse, in vivo, 32 days) worked out at 1. Besides, the “fasting overnight BG” value in the data set on db/db mice (period 1) is listed as “significantly lower blood glucose”. Besides, the body weight result is recorded as “significantly increased body weight” in the data set with db/db mice (period 1, AFOD 3 doses after 3 weeks, pioglitazone after 2 weeks) and “effect on increasing body weight” with db/db mice (period 2, vs vehicle group). In addition, in the data set with db/db mice (period 1, pioglitazone after 1 week, AFOD low dose after 8 doses), the “blood glucose (fasting 6 h)” value is reported as “significantly reduced blood glucose”. Further, the “blood glucose (fasted 6 h)” value in the data set on db/db mice (period 2) was “significant difference on blood glucose”. The “liver weight and ratio of liver/body weight” value in the data set with db/db mice (period 2) is “effect on reducing the ratio”. The “overnight fasting blood glucose” value with db/db mice (period 2, after 4 weeks treatment) is on record as “significantly reduced the fasting overnight blood glucose level”. In addition, the plasma triglyceride level entry with db/db mice (period 2, after 5 weeks treatment) is given as “significantly lowered”. Moreover, in the data set with db/db mice (period 2, AFOD after 14 doses (p=0.054), pioglitazone after 5 weeks (p=0.051)), the “plasma insulin resistance (HOMA-IR)” value is listed as “trend on improving insulin resistance”.
Regarding `NC(=O)c1ncn([C@@H]2O[C@H](CO)[C@@H](O)[C@H]2O)n1` [Ribavirin], the “inhibition of HCV” value with HCV came to 50%.
For the molecule `CC(C)c1c(C(=O)Nc2ccccc2)c(-c2ccccc2)c(-c2ccc(F)cc2)n1CC[C@@H](O)C[C@@H](O)CC(=O)O` [Liptor, reference compound], the “calcification, pathological examination” value in data set [6] is “one animal with calcification”.
